Experimental data as given in PMC7564282, “Juniperonic Acid Biosynthesis is Essential in Caenorhabditis elegans Lacking Δ6 Desaturase (fat-3) and Generates New ω-3 Endocannabinoids” (Cells, 2020).

How the values were obtained:
NPR-32 = molecular target: T1, NPR-32 (Caenorhabditis elegans, UniProt O62403); assay: Saturation binding of [3H]CP55,940 to NPR-32 receptors; parameters: species or system C. elegans; conditions: saturation binding curve, worm membranes, read-out: apparent Kd
T1 sequence (O62403 1-440): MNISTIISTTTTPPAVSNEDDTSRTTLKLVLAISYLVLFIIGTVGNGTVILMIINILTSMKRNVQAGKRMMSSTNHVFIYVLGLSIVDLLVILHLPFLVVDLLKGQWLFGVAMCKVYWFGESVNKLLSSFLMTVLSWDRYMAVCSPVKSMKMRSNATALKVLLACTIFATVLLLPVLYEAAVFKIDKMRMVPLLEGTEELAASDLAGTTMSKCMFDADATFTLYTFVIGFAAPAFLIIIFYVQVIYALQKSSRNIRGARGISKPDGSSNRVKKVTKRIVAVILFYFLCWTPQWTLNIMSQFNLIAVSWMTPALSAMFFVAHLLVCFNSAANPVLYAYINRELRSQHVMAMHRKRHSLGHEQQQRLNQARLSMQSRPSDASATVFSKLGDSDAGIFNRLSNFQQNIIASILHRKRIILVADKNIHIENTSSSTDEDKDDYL
Experimental: (§1) Briefly, 75 μg of crude membrane preparations were resuspended in 300 μL of assay buffer (50 mM Tris-HCl, 2.5 mM EDTA, 5 mM MgCl2, 0.5% BSA, pH 7.5) in silanized glass tubes and preincubated with 5 µM JZL-195 for 30 min at 30 °C. […] CP55,940 for 75 min at 30 °C. After the incubation time, membrane suspensions were rapidly filtered through a 0.1% polyethyleneimine presoaked 96-well microplate bonded with GF/B glass fiber filters (UniFilter-96 GF/B, PerkinElmer Life Sciences) under vacuum and washed 12 times with 120 µL of washing buffer (50 mM Tris-HCl, 2.5 mM EDTA, 5 mM MgCl2, 0.5% BSA, pH 7.5). Filters were added with 50 µL of MicroScint20 scintillation liquid, and radioactivity was measured with the 1450 MicroBeta Trilux top counter (PerkinElmer Life Sciences). The results were analyzed with GraphPad Prism 5® and expressed as % of [^3H]CP55,940 binding. IC50 values of each compound were estimated from fitted nonlinear curves and were used to calculate the Ki values by applying the Cheng-Prusoff equation. Specific binding was determined using the npr-32(ok2541) mutant strain in which saturation binding was abolished. Importantly, normalizing against the NPR-19 null mutant strain- npr-19(ok2068), no saturation binding curve could be achieved.
However, no binding or other direct interactions between AEA and these GPCRs were reported. […]

NPR-19 = assay: [3H]CP55,940 binding normalized against NPR-19 null mutant npr-19(ok2068); parameters: species or system C. elegans; conditions: no saturation binding curve (data not shown)
Experimental: as §1

CCCCCCC(C)(C)c1ccc([C@@H]2C[C@H](O)CC[C@H]2CCCO)c(O)c1 [CP55,940]
Kd (NPR-32): 2.5 ± 1.8 nM | binding to NPR-19 (NPR-19): did not bind
